Assays:
Assay type in all cases: in vivo, mouse
[1] = tested on: learning and/or memory functions of C57Bl/6j mice (LPS-induced learning and/or memory disorder model); assay: Novel object recognition test in LPS-induced learning and/or memory disorder model (Experimental Example 1); settings: 3 g/kg body weight oral once a day for 13 days; LPS 250 μg/kg i.p. day 4 to 10; Tukey; Example 1 p<0.05
Procedure: To the control LPS group was orally administered 10 mL of distilled water per kg of mouse body weight once a day for 13 consecutive days.
The agent of Comparative Example 2 was suspended in distilled water at a concentration of 0.3 g/mL, and 10 mL (3 g/kg body weight) was orally administered per kg of mouse body weight once a day for 13 consecutive days to the group to be administered with the agent of Comparative Example 2 (LPS+Gly3). […]
During the training trial, the ratio (%) of the time of contact with object A1 or A2 with a shorter contact time to the total time of contact with the two objects (A1 and A2) placed in the experimental arena was calculated.
During the retention trial, the ratio (%) of the time of contact with object B to the total time of contact with the two objects (A1 and B, or A2 and B) placed in the experimental arena was determined. […]

[2] = tested on: Thyroid stimulating hormone receptor (TShr) gene; assay: Hippocampal gene expression level by RNA-seq (TPM), Tshr; settings: oral once a day for 13 days (Example 1 3 g/kg, Comp. Ex. 4 2 g/kg, Comp. Ex. 5 1 g/kg); Dunnett; p<0.05 for Example 1
Procedure: (§1) At that time, as comparison samples, 2 g of glycine was used as the agent of Comparative Example 4, and 1 g of L-serine was used as the agent of Comparative Example 5, and the action on gene expression in the mouse hippocampus was similarly examined.
(§2) The agent of Comparative Example 4 was suspended in 0.5 wt % methylcellulose aqueous solution at a concentration of 0.2 g/mL, and 10 mL (2 g/kg body weight) was orally administered per kg of mouse body weight once a day for 13 consecutive days to the group to be administered with the agent of Comparative Example 4 (LPS+Gly2).
as §2, with “5” for “4”, “0.1” for “0.2”, “(1” for “(2”, “5 (LPS+L-Ser1).” for “4 (LPS+Gly2).”
(§3) Hippocampal tissue was collected from each group of mice that had been administered with each suspension or vehicle shown in Table 5 for 13 consecutive days, total RNA was extracted from each individual separately, and RNA sequencing (RNA-seq) was performed. […] Samples from individuals suspected of being contaminated at the time of tissue collection were excluded from analysis.

[3] = tested on: D-site of albumin promoter (albumin D-box) binding protein (Dbp) gene; assay: Hippocampal gene expression level by RNA-seq (TPM), Dbp; settings: oral once a day for 13 days (Example 1 3 g/kg, Comp. Ex. 4 2 g/kg, Comp. Ex. 5 1 g/kg); Dunnett; p<0.05 for Example 1
Procedure: as §1, §2
as §2, with “5” for “4”, “0.1” for “0.2”, “(1” for “(2”, “5 (LPS+L-Ser1).” for “4 (LPS+Gly2).”
as §3

[4] = tested on: Sonic hedgehog (Shh) gene; assay: Hippocampal gene expression level by RNA-seq (TPM), Shh; settings: oral once a day for 13 days (Example 1 3 g/kg, Comp. Ex. 4 2 g/kg, Comp. Ex. 5 1 g/kg); Dunnett; p<0.05 for Example 1
Procedure: as §1, §2
as §2, with “5” for “4”, “0.1” for “0.2”, “(1” for “(2”, “5 (LPS+L-Ser1).” for “4 (LPS+Gly2).”
as §3

[5] = tested on: Galanin and GMAP prepropeptide (Gal) gene; assay: Hippocampal gene expression level by RNA-seq (TPM), Gal; settings: oral once a day for 13 days (Example 1 3 g/kg, Comp. Ex. 4 2 g/kg, Comp. Ex. 5 1 g/kg); Dunnett; p<0.05 for Example 1
Procedure: as §1, §2
as §2, with “5” for “4”, “0.1” for “0.2”, “(1” for “(2”, “5 (LPS+L-Ser1).” for “4 (LPS+Gly2).”
as §3

[6] = tested on: Family with sequence similarity 107 member a (Fam107a) gene; assay: Hippocampal gene expression level by RNA-seq (TPM), Fam107a; settings: oral once a day for 13 days (Example 1 3 g/kg, Comp. Ex. 4 2 g/kg, Comp. Ex. 5 1 g/kg); Dunnett; p<0.05 for Example 1
Procedure: as §1, §2
as §2, with “5” for “4”, “0.1” for “0.2”, “(1” for “(2”, “5 (LPS+L-Ser1).” for “4 (LPS+Gly2).”
as §3

Row | SMILES | RI value (%) during the retention trial, compared with the group orally administered with distilled water (LPS) [1] | expression of the Tshr gene in hippocampus vs solvent alone (LPS) [2] | expression of the Dbp gene in hippocampus vs solvent alone (LPS) [3] | expression of the Shh gene in hippocampus vs solvent alone (LPS) [4] | expression of the Gal gene in hippocampus vs solvent alone (LPS) [5] | expression of the Fam107a gene in hippocampus vs solvent alone (LPS) [6]
1 | NCC(=O)O [Comparative Example 2, glycine] | significant difference was not observed |  |  |  |  | 
2 | NCC(=O)O [Comparative Example 4, glycine] |  | significant changes in the expression levels of genes were not observed | significant changes in the expression levels of genes were not observed | significant changes in the expression levels of genes were not observed | significant changes in the expression levels of genes were not observed | significant changes in the expression levels of genes were not observed
3 | N[C@@H](CO)C(=O)O [Comparative Example 5, L-serine] |  | significant changes in the expression levels of genes were not observed | significant changes in the expression levels of genes were not observed | significant changes in the expression levels of genes were not observed | significant changes in the expression levels of genes were not observed | significant changes in the expression levels of genes were not observed
